Assay [1] has as its system Huh7 cells. To be noted: liposome with DOPE, 0.5 μg pCMVβ. As to the method: (§1) Without sonication, liposomes were prepared at 60° C. by combining DOPE with one of the following:
(§2) The resulting liposomes were used to transfect HeLaS3 and Huh7 cells in vitro with the reporter plasmid pCMVβ (Clontech). Transfection efficiency values, obtained by taking OD measurements after cell-lysis and β-Gal activity assay, were compared to efficiencies obtained in parallel with a commercially available liposome-preparation (Lipofectamine, Gibco LTI) and given as percentage of Lipofectamine efficiency. In each transfection, 0.5 μg of pCMVβ (isolated with EndoFree, QIAGEN) was used per well of a 96 well plate. The DNA was diluted to 50 μl with DMEM medium (Gibco LTI) and combined with 1, 2, 3 and 4 μl of the liposome preparations subsequently diluted to 50 μl with DMEM medium. DNA and liposome solutions were mixed and applied to the cells for 6 hours at 37° C., 5% CO2. Afterwards, medium was changed to DMEM containing 10% fetal calf serum. Cells were lysed after 48 h incubation at 37° C., 5% CO2.
(§3) Twofold determinations each were performed. The values were averaged and the highest efficiency (optimum) within a row was given as percentage value of the highest efficiency (optimum) obtained with Lipofectamine.

The subject of assay [2] is HeLaS3 cells. To be noted: liposome with DOPE, 0.5 μg pCMVβ. The protocol:
as §1, §2, §3

The test system of assay [3] is Huh7 cells.
Protocol: The resulting liposomes were used to transfect Huh7 cells in vitro with the reporter plasmid pCMVβ (Clontech). Transfection efficiencies, as obtained by OD measurements after cell-lysis and β-Gal activity assay, were compared to efficiencies obtained in parallel with a commercially available liposome-preparation (Lipofectamine, Gibco LTI) and given as percentage of Lipofectamine efficiency. For each transfection, 0.5 μg of pCMVβ (isolated with EndoFree, QIAGEN) was used per well of a 96 well plate. The DNA was diluted to 50 μl with DMEM medium (Gibco LTI) and combined with 1, 2, 3 and 4 μl of the liposome preparations subsequently diluted to 50 μl with DMEM medium. DNA and liposome solutions were mixed and applied to the cells for 6 hours at 37° C., 5% CO2. Afterwards, medium was changed to DMEM containing 10% fetal calf serum. Cells were lysed after 48 h incubation at 37° C., 5% CO2. Twofold determinations each were performed. The values were averaged and the highest efficiency (optimum) within a row was given as percentage value of the highest efficiency (optimum) obtained with Lipofectamine.
Assay [4] has as its system HeLaS3 cells. Put plainly: Transfection of HeLaS3 cells with pCMVβ, β-Gal activity assay (variation of counter ion). It is filed as cell-based. Particulars: 10-2-10 cytofectin with the given counter ion, liposome with DOPE, 0.5 μg pCMVβ. As to the method: Liposomes were used to transfect HeLaS3 cells in vitro with the reporter plasmid pCMVβ (Clontech). […] Cells were incubated for 48 hours at 37° C., 5% CO2 and then lysed.
In similar studies in HeLaS3 cells, the same vector was transfected with liposomes comprising bromide counter ions and the cytofectin, 10-2-10 Ethandiyl-1,2-bis(decyl dimethylammonium).

For the next assay, the system named is COS7 cells. Particulars: liposome with DOPE, 1 μg pCMVβ, optimum of 1-4 μl liposome. As to the method: (§4) Liposomes were prepared at 60° C. by combining 10-3-10 (Propandiyl-1,3-bis(decyl dimethylammonium bromide) and DOPE (as described in Example 3), with and without sonication.
(§5) Liposomes were used to transfect HeLaS3 and COS7 cells in vitro with the reporter plasmid pCMVβ (Clontech). Transfection efficiencies, as obtained by optical density (OD) measurements after cell-lysis and β-Gal activity assay, were compared to efficiencies obtained in parallel with a commercially available liposome-preparation (Lipofectamine, Gibco LTI) and given as percentage of Lipofectamine efficiency. For each transfection, 1 μg of pCMVβ (isolated with EndoFree, QIAGEN) was used per well of a 96-well plate. The DNA was diluted to 50 μl with DMEM medium (Gibco LTI) and combined with 1, 2, 3 and 4 μl of the liposome preparations subsequently diluted to 50 μl with DMEM medium. DNA and liposome solutions were mixed and applied to the cells for 6 hours at 37° C., 5% CO2. Afterwards, medium was changed to DMEM containing 10% fetal calf serum. Cells were lysed after 48 h incubation at 37° C., 5% CO2.
as §3

Assay [5] deals with HeLaS3 cells. To be noted: for Results (%) HeLaS3 (transfection efficiency as percentage of Lipofectamine efficiency): liposome with DOPE, 1 μg pCMVβ, optimum of 1-4 μl liposome. The protocol:
as §4, §5, §3

Setting [6] is: X(DOPE) 0.50, without sonication.
Where [7] appears, read: X(DOPE) 0.60, without sonication.
Setting [8] is: X(DOPE) 0.70, without sonication.
The mark [9] stands for this setting: X(DOPE) 0.80, without sonication.
[10] abbreviates: Huh7, liposome with DOPE, X(DOPE) 0.50, without sonication, 0.5 μg pCMVβ.
[11] abbreviates: Huh7, liposome with DOPE, X(DOPE) 0.60, without sonication, 0.5 μg pCMVβ.
[12] abbreviates: Huh7, liposome with DOPE, X(DOPE) 0.70, without sonication, 0.5 μg pCMVβ.
[13] abbreviates: Huh7, liposome with DOPE, X(DOPE) 0.80, without sonication, 0.5 μg pCMVβ.

Where “and” joins values, the source holds several entries; their conditions need not be identical. Equal entries are not always repeated. Where two headings read alike, the source gives them in different places.

Turning to `Br` [10-2-10, Ethanediyl-1,2-bis(decyldimethylammonium bromide)], the “Results (%) Huh7 (transfection efficiency as percentage of Lipofectamine efficiency)” value is 142% in the assay with Huh7 cells [1] (setting [6]), 127% in the assay on Huh7 cells [1] (setting [7]), 111% with Huh7 cells [1] (setting [8]) and 115% with Huh7 cells [1] (setting [9]). Besides, the “Results (%) HeLaS3 (transfection efficiency as percentage of Lipofectamine efficiency)” value turned out to be 216% in the assay on HeLaS3 cells [2] (setting [6]), 286% in the assay on HeLaS3 cells [2] (setting [7]), 165% with HeLaS3 cells [2] (setting [8]) and 178% in the assay on HeLaS3 cells [2] (setting [9]). Moreover, the “Result (%) (transfection efficiency as percentage of Lipofectamine efficiency)” value was 111% and 115% with Huh7 cells [3]; 142% in the assay on Huh7 cells [3] (setting [10]); 127% with Huh7 cells [3] (setting [11]). Besides, the “Results (%) (optimal transfection efficiency as percentage of the highest efficiency obtained by Lipofectamine)” value in the assay on HeLaS3 cells [4] (setting [6]) was found to be 216%; with HeLaS3 cells [4] (setting [7]), 286%; in the assay on HeLaS3 cells [4] (setting [8]) it was 165%; in the assay with HeLaS3 cells [4] (setting [9]), 178%.
Take “Butanediyl-1,4-bis(decyl dimethyl-ammonium bromide) [10-4-10]”: the “Results (%) Huh7 (transfection efficiency as percentage of Lipofectamine efficiency)” value came out at 76% with Huh7 cells [1] (setting [6]), 62% in the assay with Huh7 cells [1] (setting [7]), 54% in the assay on Huh7 cells [1] (setting [8]) and 34% in the assay on Huh7 cells [1] (setting [9]). The “Results (%) HeLaS3 (transfection efficiency as percentage of Lipofectamine efficiency)” value with HeLaS3 cells [2] (setting [6]) came out at 200%; in the assay on HeLaS3 cells [2] (setting [7]), 257%; with HeLaS3 cells [2] (setting [8]), 200%; with HeLaS3 cells [2] (setting [9]), 123%.
“Ethanediyl-1,2-bis(hexadecyl dimethylammonium bromide) [16-2-16]”: the “Result (%) (transfection efficiency as percentage of Lipofectamine efficiency)” value in the assay on Huh7 cells [3] (setting [10]) is 104%; with Huh7 cells [3] (setting [11]) it was 124%; with Huh7 cells [3] (setting [12]), 126%; in the assay with Huh7 cells [3] (setting [13]), 169%.
The like results for “Ethanediyl-1,2-bis(octadecyl dimethylammonium bromide) [18-2-18]” were, in that order, 82%, 68%, 105% and 115%.
With “Ethanediyl-1,2-bis(tetradecyl dimethylammonium bromide) [14-2-14]”, the “Result (%) (transfection efficiency as percentage of Lipofectamine efficiency)” value turned out to be 48% in the assay on Huh7 cells [3] (setting [10]), 74% in the assay on Huh7 cells [3] (setting [11]), 98% in the assay with Huh7 cells [3] (setting [12]) and 157% in the assay with Huh7 cells [3] (setting [13]).
Turning to “Propandiyl-1,3-bis(decyl dimethylammonium bromide) [10-3-10]”, the “Results (%) Huh7 (transfection efficiency as percentage of Lipofectamine efficiency)” value is given as 80% with Huh7 cells [1] (setting [6]), 83% with Huh7 cells [1] (setting [7]), 54% in the assay on Huh7 cells [1] (setting [8]) and 39% with Huh7 cells [1] (setting [9]). The “Results (%) HeLaS3 (transfection efficiency as percentage of Lipofectamine efficiency)” value in the assay on HeLaS3 cells [2] (setting [6]) is recorded as 241%; with HeLaS3 cells [2] (setting [7]) it was 293%; in the assay on HeLaS3 cells [2] (setting [8]), 223%; in the assay with HeLaS3 cells [2] (setting [9]), 118%; in the assay on HeLaS3 cells [5] (X(DOPE) 0.20, sonic. for 300 s), 39%; with HeLaS3 cells [5] (X(DOPE) 0.20, w/o sonication) it was 39%. The “Results (%) HeLaS3 (transfection efficiency as percentage of Lipofectamine efficiency)” value in the assay with HeLaS3 cells [5] (X(DOPE) 0.35, sonic. for 300 s) is listed as 39%; in the assay on HeLaS3 cells [5] (X(DOPE) 0.35, w/o sonication), 61%; with HeLaS3 cells [5] (X(DOPE) 0.50, sonic. for 300 s), 47%; with HeLaS3 cells [5] (X(DOPE) 0.50, w/o sonication) it was 115%; with HeLaS3 cells [5] (X(DOPE) 0.65, sonic. for 300 s) it was 83%; in the assay on HeLaS3 cells [5] (X(DOPE) 0.65, w/o sonication) it was 275%. In addition, the “Results % COS7 (transfection efficiency as percentage of Lipofectamine efficiency)” value in the assay on COS7 cells (X(DOPE) 0.20, sonic. for 300 s) was 6%; in the assay with COS7 cells (X(DOPE) 0.20, w/o sonication) it was 6%; with COS7 cells (X(DOPE) 0.35, sonic. for 300 s), 6%; in the assay with COS7 cells (X(DOPE) 0.35, w/o sonication) it was 6%; in the assay with COS7 cells (X(DOPE) 0.50, sonic. for 300 s) it was 6%; with COS7 cells (X(DOPE) 0.50, w/o sonication) it was 7%. Also, the “Results % COS7 (transfection efficiency as percentage of Lipofectamine efficiency)” value in the assay on COS7 cells (X(DOPE) 0.65, sonic. for 300 s) was found to be 8%; in the assay with COS7 cells (X(DOPE) 0.65, w/o sonication) it was 26%. In the assay on HeLaS3 cells [5] (liposomes with DOPE, HeLaS3 versus COS7), the “cell-type specificity compared with Lipofectamine” value is recorded as “more cell-type specific than Lipofectamine”.
